This is an account of results in ChEMBL document CHEMBL1149645, “Malondialdehyde scavenging and aldose-derived Schiff bases' transglycation properties of synthetic histidyl-hydrazide carnosine analogs” (Bioorg Med Chem, 2007).

The source made the active and inactive calls. The rule behind the calls is not given here. Residues, ends and D or L forms follow the SMILES beside them. *: point of attachment. NHNH2 = NN*

The nature of the experiment: Malondialdehyde scavenging activity in iron/ascorbate-induced oxidation in PC liposomes at 10 mM by TBARS test. Format: functional.
In the case of `CC(C)CCCC(C)[C@H]1CCC2C3CC=C4C[C@@H](OC(=O)N[C@@H](Cc5c[nH]cn5)C(=O)NN)CC[C@]4(C)C3CC[C@@]21C` (some centres undefined), the result was Active.

Take `CC(C)C[C@H](N)C(=O)N[C@@H](Cc1c[nH]cn1)C(=O)NN` (H-Leu-His-NHNH2): the result was Active. The entry for `Cc1c(C)c2c(c(C)c1OC(=O)CCC(=O)N[C@@H](Cc1c[nH]cn1)C(=O)NN)CCC(C)(CCCC(C)CCCC(C)CCCC(C)C)O2` (some centres undefined) is “Active”; for `NCCC(=O)N[C@@H](Cc1c[nH]cn1)C(=O)O` it is “Active”; for `NNC(=O)[C@H](Cc1c[nH]cn1)NC(=O)[C@@H](N)Cc1ccccc1` (H-Phe-His-NHNH2) it is “Active”.

As to `NNC(=O)[C@@H](N)Cc1c[nH]cn1`, the outcome was Active.

Take `NNC(=O)[C@H](Cc1c[nH]cn1)NC(=O)OCc1ccccc1`: the result was Active.

With `NNC(=O)CNC(=O)OCc1ccccc1`, the result was Active. Take `NCC(=O)NN`: the outcome was Active.
